In ChEMBL document CHEMBL5678818, “Discovery of potent SOS1 inhibitors that block RAS activation via disruption of the RAS-SOS1 interaction” (Proc Natl Acad Sci U S A, 2019):

target: SOS1-KRAS (Homo sapiens, UniProt Q07889); assay: Inhibition of N-terminal GST-tagged recombinant human KRAS G12C mutant (1 to 169 residues) expressed in Escherichia coli/N-terminal His10-tagged wild-type recombinant human SOS1 catalytic domain (564 to 1049 residues) expressed in Escherichia coli protein-protein interaction preincubated for 2 mins with KRAS followed by SOS1 addition measured after 60 mins in presence of anti-6His-XL665 by HTRF analysis
Sequence (Q07889 whole entry, looked up, stated change not applied, the tested form may be a part): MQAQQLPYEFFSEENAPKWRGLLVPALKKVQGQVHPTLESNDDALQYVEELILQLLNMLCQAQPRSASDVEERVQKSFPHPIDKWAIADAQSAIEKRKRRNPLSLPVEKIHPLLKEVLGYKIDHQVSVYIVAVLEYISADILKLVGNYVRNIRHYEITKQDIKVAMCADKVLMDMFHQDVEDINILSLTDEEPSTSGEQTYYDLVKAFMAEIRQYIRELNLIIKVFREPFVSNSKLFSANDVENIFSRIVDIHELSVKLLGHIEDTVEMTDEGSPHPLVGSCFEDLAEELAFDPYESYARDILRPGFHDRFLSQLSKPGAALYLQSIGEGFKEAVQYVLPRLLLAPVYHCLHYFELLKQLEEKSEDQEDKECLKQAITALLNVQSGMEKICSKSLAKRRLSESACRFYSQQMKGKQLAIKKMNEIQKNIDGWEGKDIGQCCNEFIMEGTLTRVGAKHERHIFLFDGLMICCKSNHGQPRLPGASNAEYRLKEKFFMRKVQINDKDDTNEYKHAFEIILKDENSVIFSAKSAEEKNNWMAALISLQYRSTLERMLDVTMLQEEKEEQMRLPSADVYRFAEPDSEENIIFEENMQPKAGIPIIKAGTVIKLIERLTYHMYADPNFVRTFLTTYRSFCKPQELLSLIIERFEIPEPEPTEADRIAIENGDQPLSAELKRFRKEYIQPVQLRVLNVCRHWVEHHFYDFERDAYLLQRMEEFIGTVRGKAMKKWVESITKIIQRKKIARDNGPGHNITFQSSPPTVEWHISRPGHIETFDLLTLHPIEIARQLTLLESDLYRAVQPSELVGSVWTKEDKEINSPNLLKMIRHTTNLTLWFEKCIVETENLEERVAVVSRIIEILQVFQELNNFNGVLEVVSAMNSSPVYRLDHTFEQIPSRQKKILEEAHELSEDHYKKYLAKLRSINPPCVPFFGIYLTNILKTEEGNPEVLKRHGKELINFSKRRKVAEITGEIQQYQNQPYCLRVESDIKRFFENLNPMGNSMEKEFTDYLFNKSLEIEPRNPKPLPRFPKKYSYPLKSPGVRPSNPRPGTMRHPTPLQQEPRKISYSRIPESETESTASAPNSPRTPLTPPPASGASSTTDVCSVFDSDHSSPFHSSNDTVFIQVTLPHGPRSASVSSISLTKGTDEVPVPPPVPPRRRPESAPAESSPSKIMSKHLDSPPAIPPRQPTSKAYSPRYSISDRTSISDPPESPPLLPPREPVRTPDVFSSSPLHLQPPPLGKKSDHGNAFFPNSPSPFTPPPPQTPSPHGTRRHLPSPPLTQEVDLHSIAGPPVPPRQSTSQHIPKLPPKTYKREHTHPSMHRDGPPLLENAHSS

SMILES | IC50
COc1cc2nc(C)nc(NC(C)c3ccc(-c4ccccc4C(C)(C)N)s3)c2cc1OC (stereo unspecified) | 400 nM
CNCc1ccccc1-c1ccc(C(C)Nc2nc(C)nc3cc(OC)c(OC)cc23)s1 (stereo unspecified) | 41 nM
COc1cc2nc(C)nc(NC(C)c3ccc(-c4ccccc4C(N)=O)s3)c2cc1OC (stereo unspecified) | 3210 nM
COc1cc2nc(C)nc(NC(C)c3ccc(-c4ccccc4S(=O)(=O)N(C)C)s3)c2cc1OC (stereo unspecified) | 2160 nM
COc1cc2nc(N(C)C)nc(N[C@H](C)c3cccc4ccccc34)c2cc1OC | 800 nM
COc1cc2nc(C)nc(NC(C)c3ccc(-c4ccccc4S(C)(=O)=O)s3)c2cc1OC (stereo unspecified) | 1410 nM
COc1cc2nccc(N[C@H](C)c3cccc4ccccc34)c2cc1OC | 2590 nM
COc1cc2nc(C(F)(F)F)nc(N[C@H](C)c3cccc4ccccc34)c2cc1OC | 1450 nM
COc1cc2nc(C)nc(NC(C)c3ccc(-c4ccccc4C#N)s3)c2cc1OC (stereo unspecified) | 590 nM
COc1cc2ccnc(N[C@H](C)c3cccc4ccccc34)c2cc1OC | 12200 nM
COc1cc2nc(C)nc(NC(C)c3ccc(-c4ccccc4CN(C)C)s3)c2cc1OC (stereo unspecified) | 40 nM
CCNCc1ccccc1-c1ccc(C(C)Nc2nc(C)nc3cc(OC)c(OC)cc23)s1 (stereo unspecified) | 55 nM
COc1cc2nc(C)nc(N(C)[C@H](C)c3cccc(Br)c3)c2cc1OC | > 20000 nM
COc1cc2nc(C)nc(NC(C)c3ccc(-c4ccccc4[C@@H](C)N)s3)c2cc1OC (stereo partly specified) | 200 nM
COc1cc2nc(C)nc(N[C@H](C)c3cccc(Br)c3)c2cc1OC | 170 nM
COc1cc2nc(C)nc(NC(C)c3ccc(-c4ccccc4CN)s3)c2cc1OC (stereo unspecified) | 80 nM
COc1cc2nc(C)nc(NC(C)c3ccc(-c4ccccc4CN4CCC4)s3)c2cc1OC (stereo unspecified) | 76 nM
COc1cc2nc(C)nc(NC(C)c3ccc(-c4ccc(F)cc4CNC(C)=O)s3)c2cc1OC (stereo unspecified) | 590 nM
COc1cc2nc(C)nc(NC(C)c3ccc(-c4ccccc4CNCCO)s3)c2cc1OC (stereo unspecified) | 46 nM
COc1cc2nc(C)nc(NC(C)c3ccc(-c4ccccc4CCN)s3)c2cc1OC (stereo unspecified) | 51 nM
COCCNCc1ccccc1-c1ccc(C(C)Nc2nc(C)nc3cc(OC)c(OC)cc23)s1 (stereo unspecified) | 100 nM
COc1cc2nc(C)nc(NC(C)c3ccc(-c4ccccc4CO)s3)c2cc1OC (stereo unspecified) | 280 nM
COc1cc2nc(C)nc(NC(C)c3ccc(-c4ccccc4CNCc4ccccc4)s3)c2cc1OC (stereo unspecified) | 470 nM
CCN(CC)Cc1ccccc1-c1ccc(C(C)Nc2nc(C)nc3cc(OC)c(OC)cc23)s1 (stereo unspecified) | 170 nM
COc1cc2nc(C)nc(NC(C)c3ccc(-c4ccccc4CNCC(F)(F)F)s3)c2cc1OC (stereo unspecified) | 3150 nM
CCCCNCc1ccccc1-c1ccc(C(C)Nc2nc(C)nc3cc(OC)c(OC)cc23)s1 (stereo unspecified) | 98 nM
COc1cc2nc(C)nc(NC(C)c3ccc(-c4ccccc4[C@H](C)N)s3)c2cc1OC (stereo partly specified) | 230 nM
COc1cc2nc(C)nc(NC(C)c3ccc(-c4ccccc4CN(C)CCO)s3)c2cc1OC (stereo unspecified) | 47 nM
COc1cc2nc(C)nc(NC(C)c3ccc(-c4ccccc4CN4CC(F)C4)s3)c2cc1OC (stereo unspecified) | 410 nM
COc1cc2nc(C)nc(NC(C)c3ccc(-c4ccccc4CNCC(F)F)s3)c2cc1OC (stereo unspecified) | 780 nM

target: Epidermal growth factor receptor (Homo sapiens, UniProt P00533); assay: Inhibition of human EGFR using biotin-aminohexyl-AEEEEYFELVAKKK as substrate preincubated for 15 mins followed by substrate/ATP addition measured after 20 mins by FRET assay
Sequence (P00533 whole entry): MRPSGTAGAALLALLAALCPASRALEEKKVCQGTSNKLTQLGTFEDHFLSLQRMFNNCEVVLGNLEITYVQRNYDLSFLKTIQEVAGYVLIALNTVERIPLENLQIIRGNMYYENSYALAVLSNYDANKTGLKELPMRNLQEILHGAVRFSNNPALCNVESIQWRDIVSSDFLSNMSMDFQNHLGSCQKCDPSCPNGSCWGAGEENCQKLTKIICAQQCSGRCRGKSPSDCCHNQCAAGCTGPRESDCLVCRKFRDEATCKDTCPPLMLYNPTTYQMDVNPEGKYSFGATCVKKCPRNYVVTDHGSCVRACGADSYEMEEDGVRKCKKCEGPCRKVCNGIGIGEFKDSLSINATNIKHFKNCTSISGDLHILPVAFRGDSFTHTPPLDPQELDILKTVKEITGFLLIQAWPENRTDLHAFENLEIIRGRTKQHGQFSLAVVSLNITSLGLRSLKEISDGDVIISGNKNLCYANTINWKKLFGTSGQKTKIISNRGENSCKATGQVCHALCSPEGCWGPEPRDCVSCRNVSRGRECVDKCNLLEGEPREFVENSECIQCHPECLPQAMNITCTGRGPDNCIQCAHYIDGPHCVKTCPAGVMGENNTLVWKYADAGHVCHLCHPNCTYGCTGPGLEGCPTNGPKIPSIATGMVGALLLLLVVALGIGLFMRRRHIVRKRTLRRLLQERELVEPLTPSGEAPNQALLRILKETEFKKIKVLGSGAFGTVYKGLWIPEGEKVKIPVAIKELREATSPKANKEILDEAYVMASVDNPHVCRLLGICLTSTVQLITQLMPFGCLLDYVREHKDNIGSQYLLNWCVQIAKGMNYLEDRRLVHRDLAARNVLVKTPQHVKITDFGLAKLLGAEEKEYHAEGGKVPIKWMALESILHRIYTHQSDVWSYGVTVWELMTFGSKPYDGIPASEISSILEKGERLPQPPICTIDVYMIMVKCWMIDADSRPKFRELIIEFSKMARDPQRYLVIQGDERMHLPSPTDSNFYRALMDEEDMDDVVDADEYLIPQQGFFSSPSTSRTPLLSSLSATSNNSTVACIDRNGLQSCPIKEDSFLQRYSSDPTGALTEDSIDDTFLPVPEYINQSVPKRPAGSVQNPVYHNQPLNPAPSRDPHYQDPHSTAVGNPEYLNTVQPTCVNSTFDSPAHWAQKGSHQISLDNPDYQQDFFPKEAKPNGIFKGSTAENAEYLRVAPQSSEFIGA

SMILES | IC50
COc1cc2nc(N(C)C)nc(N[C@H](C)c3cccc4ccccc34)c2cc1OC | > 20000 nM
COc1cc2nc(C(F)(F)F)nc(N[C@H](C)c3cccc4ccccc34)c2cc1OC | > 20000 nM
COc1cc2ccnc(N[C@H](C)c3cccc4ccccc34)c2cc1OC | > 20000 nM
COc1cc2nc(C)nc(N(C)[C@H](C)c3cccc(Br)c3)c2cc1OC | > 20000 nM
COc1cc2nc(C)nc(N[C@H](C)c3cccc4ccccc34)c2cc1OC | > 20000 nM
COc1cc2nc(C)nc(N[C@H](C)c3cccc(Br)c3)c2cc1OC | > 20000 nM
